Measured values: the CheMixHub drug solubility set

Experiment: xn = mol fraction of the nth substance listed, in the solute-free solvent

Nc1ncc(Br)nc1Br + CC(C)O + O
solubility (g/100 g solution)
Settings | 278.15 K | 283.15 K | 288.15 K | 293.15 K | 298.15 K | 303.15 K | 308.15 K | 313.15 K | 318.15 K | 323.15 K
x2 = 0.03225 | 0.0151 | 0.0182 | 0.0212 | 0.0248 | 0.0285 | 0.032 | 0.0361 | 0.0405 | 0.0448 | 0.0495
x2 = 0.06974 | 0.0399 | 0.0475 | 0.0548 | 0.0636 | 0.0724 | 0.0809 | 0.0905 | 0.101 | 0.111 | 0.122
x2 = 0.1139 | 0.0745 | 0.0882 | 0.101 | 0.117 | 0.133 | 0.148 | 0.165 | 0.183 | 0.202 | 0.221
x2 = 0.1666 | 0.109 | 0.129 | 0.148 | 0.171 | 0.194 | 0.218 | 0.242 | 0.269 | 0.297 | 0.327
x2 = 0.2307 | 0.133 | 0.157 | 0.181 | 0.21 | 0.24 | 0.273 | 0.304 | 0.34 | 0.377 | 0.42
x2 = 0.3103 | 0.153 | 0.178 | 0.21 | 0.244 | 0.281 | 0.318 | 0.358 | 0.403 | 0.449 | 0.5
x2 = 0.4117 | 0.166 | 0.198 | 0.233 | 0.273 | 0.312 | 0.358 | 0.403 | 0.453 | 0.505 | 0.567
x2 = 0.5454 | 0.181 | 0.216 | 0.255 | 0.298 | 0.344 | 0.398 | 0.449 | 0.51 | 0.573 | 0.64
x2 = 0.7297 | 0.197 | 0.236 | 0.277 | 0.324 | 0.376 | 0.432 | 0.496 | 0.562 | 0.634 | 0.721

O=C1C=CC(=O)N1c1ccccc1Br + CC(C)O + O
solubility (g/100 g solution)
Settings | 278.15 K | 283.15 K | 288.15 K | 293.15 K | 298.15 K | 303.15 K | 308.15 K | 313.15 K | 318.15 K | 323.15 K
x2 = 0.03225 | 0.488 | 0.623 | 0.779 | 0.978 | 1.23 | 1.51 | 1.84 | 2.23 | 2.7 | 3.25
x2 = 0.06974 | 0.861 | 1.08 | 1.35 | 1.69 | 2.09 | 2.55 | 3.1 | 3.77 | 4.48 | 5.34
x2 = 0.1139 | 1.4 | 1.76 | 2.18 | 2.7 | 3.31 | 3.97 | 4.86 | 5.84 | 6.97 | 8.22
x2 = 0.1666 | 2.08 | 2.57 | 3.18 | 3.87 | 4.71 | 5.69 | 6.76 | 8.01 | 9.42 | 11
x2 = 0.2307 | 2.9 | 3.57 | 4.27 | 5.21 | 6.18 | 7.35 | 8.51 | 10.1 | 11.6 | 13.5
x2 = 0.3103 | 3.46 | 4.18 | 5.06 | 6.06 | 7.2 | 8.48 | 9.92 | 11.5 | 13.2 | 15.1
x2 = 0.4117 | 3.79 | 4.6 | 5.54 | 6.58 | 7.75 | 9.12 | 10.5 | 12.3 | 14.1 | 16.1
x2 = 0.5454 | 3.85 | 4.69 | 5.65 | 6.75 | 7.99 | 9.39 | 10.8 | 12.7 | 14.6 | 16.7
x2 = 0.7297 | 3.73 | 4.58 | 5.43 | 6.58 | 7.83 | 9.28 | 10.8 | 12.5 | 14.4 | 16.6

O=c1cc(CBr)c2ccccc2[nH]1 + CC(C)O + O
solubility (g/100 g solution)
Settings | 278.15 K | 283.15 K | 288.15 K | 293.15 K | 298.15 K | 303.15 K | 308.15 K | 313.15 K | 318.15 K
x2 = 0.03225 | 0.0121 | 0.0159 | 0.0207 | 0.0271 | 0.0355 | 0.0446 | 0.057 | 0.0718 | 0.0897
x2 = 0.06974 | 0.0203 | 0.0259 | 0.0329 | 0.0413 | 0.0516 | 0.0641 | 0.079 | 0.0958 | 0.119
x2 = 0.1139 | 0.03 | 0.0369 | 0.0456 | 0.0556 | 0.0685 | 0.0827 | 0.099 | 0.118 | 0.14
x2 = 0.1666 | 0.0397 | 0.0483 | 0.0576 | 0.0694 | 0.082 | 0.0986 | 0.115 | 0.136 | 0.158
x2 = 0.2307 | 0.0498 | 0.0596 | 0.0697 | 0.0834 | 0.0971 | 0.113 | 0.131 | 0.151 | 0.173
x2 = 0.3103 | 0.0585 | 0.0689 | 0.0799 | 0.0928 | 0.106 | 0.123 | 0.141 | 0.161 | 0.18
x2 = 0.4117 | 0.0623 | 0.0721 | 0.0833 | 0.0972 | 0.112 | 0.127 | 0.144 | 0.163 | 0.184
x2 = 0.5454 | 0.065 | 0.0751 | 0.0871 | 0.1 | 0.114 | 0.13 | 0.147 | 0.164 | 0.185
x2 = 0.7297 | 0.0639 | 0.0739 | 0.0847 | 0.0962 | 0.11 | 0.124 | 0.14 | 0.158 | 0.176

c1ccc2c(c1)CCc1ccccc1N2 + CC(C)O + O
solubility (g/100 g solution)
Settings | 283.15 K | 288.15 K | 293.15 K | 298.15 K | 303.15 K | 308.15 K | 313.15 K | 318.15 K | 323.15 K | 328.15 K
x2 = 0.03176 | 0.0176 | 0.0251 | 0.0346 | 0.0488 | 0.0604 | 0.0841 | 0.111 | 0.148 | 0.194 | 0.252
x2 = 0.0697 | 0.0729 | 0.101 | 0.136 | 0.186 | 0.24 | 0.32 | 0.411 | 0.527 | 0.674 | 0.851
x2 = 0.1134 | 0.12 | 0.164 | 0.22 | 0.296 | 0.38 | 0.499 | 0.636 | 0.808 | 1.02 | 1.28
x2 = 0.1667 | 0.119 | 0.156 | 0.212 | 0.286 | 0.384 | 0.504 | 0.625 | 0.779 | 0.979 | 1.22
x2 = 0.2299 | 0.126 | 0.162 | 0.214 | 0.281 | 0.369 | 0.484 | 0.601 | 0.762 | 0.947 | 1.18
x2 = 0.3101 | 0.114 | 0.153 | 0.205 | 0.27 | 0.348 | 0.452 | 0.575 | 0.726 | 0.915 | 1.14
x2 = 0.4103 | 0.132 | 0.176 | 0.237 | 0.308 | 0.396 | 0.511 | 0.648 | 0.814 | 1.02 | 1.27
x2 = 0.5463 | 0.168 | 0.221 | 0.295 | 0.38 | 0.487 | 0.622 | 0.771 | 0.958 | 1.18 | 1.47
x2 = 0.7321 | 0.172 | 0.219 | 0.296 | 0.374 | 0.48 | 0.613 | 0.778 | 0.975 | 1.22 | 1.51

Nc1ncc(Br)nc1Br + CC(O)CO + O
solubility (g/100 g solution)
Settings | 278.15 K | 283.15 K | 288.15 K | 293.15 K | 298.15 K | 303.15 K | 308.15 K | 313.15 K | 318.15 K | 323.15 K
x2 = 0.02564 | 0.0095 | 0.0115 | 0.0136 | 0.016 | 0.0185 | 0.0208 | 0.0236 | 0.0266 | 0.0296 | 0.0328
x2 = 0.0559 | 0.0197 | 0.0236 | 0.0277 | 0.0324 | 0.0372 | 0.0418 | 0.0471 | 0.0527 | 0.0583 | 0.0644
x2 = 0.09214 | 0.0333 | 0.0398 | 0.0466 | 0.0542 | 0.0622 | 0.0696 | 0.0781 | 0.0872 | 0.0963 | 0.106
x2 = 0.1364 | 0.0486 | 0.0576 | 0.0678 | 0.0785 | 0.0902 | 0.101 | 0.113 | 0.126 | 0.139 | 0.154
x2 = 0.1915 | 0.0614 | 0.0724 | 0.0858 | 0.0998 | 0.115 | 0.13 | 0.147 | 0.163 | 0.18 | 0.2
x2 = 0.2621 | 0.0735 | 0.0873 | 0.103 | 0.12 | 0.138 | 0.158 | 0.176 | 0.197 | 0.218 | 0.244
x2 = 0.3559 | 0.0818 | 0.0972 | 0.116 | 0.134 | 0.156 | 0.178 | 0.201 | 0.225 | 0.251 | 0.281
x2 = 0.4865 | 0.0875 | 0.105 | 0.125 | 0.146 | 0.17 | 0.196 | 0.219 | 0.246 | 0.276 | 0.307
x2 = 0.6806 | 0.0874 | 0.104 | 0.124 | 0.147 | 0.171 | 0.196 | 0.224 | 0.252 | 0.281 | 0.316

O=c1cc(CBr)c2ccccc2[nH]1 + CCCO + O
solubility (g/100 g solution)
Settings | 278.15 K | 283.15 K | 288.15 K | 293.15 K | 298.15 K | 303.15 K | 308.15 K | 313.15 K | 318.15 K
x2 = 0.03225 | 0.0181 | 0.0232 | 0.0292 | 0.0365 | 0.0451 | 0.0563 | 0.0686 | 0.0826 | 0.0993
x2 = 0.06974 | 0.0316 | 0.038 | 0.0464 | 0.0561 | 0.0674 | 0.0807 | 0.0957 | 0.112 | 0.131
x2 = 0.1139 | 0.0465 | 0.0552 | 0.0643 | 0.0756 | 0.0895 | 0.104 | 0.119 | 0.138 | 0.157
x2 = 0.1666 | 0.0629 | 0.0722 | 0.084 | 0.096 | 0.11 | 0.125 | 0.142 | 0.159 | 0.18
x2 = 0.2307 | 0.0788 | 0.0907 | 0.102 | 0.115 | 0.131 | 0.146 | 0.164 | 0.181 | 0.202
x2 = 0.3103 | 0.0908 | 0.103 | 0.115 | 0.13 | 0.144 | 0.161 | 0.18 | 0.198 | 0.218
x2 = 0.4117 | 0.0987 | 0.11 | 0.124 | 0.14 | 0.155 | 0.172 | 0.189 | 0.207 | 0.229
x2 = 0.5454 | 0.103 | 0.114 | 0.128 | 0.141 | 0.156 | 0.173 | 0.189 | 0.209 | 0.228
x2 = 0.7297 | 0.102 | 0.112 | 0.124 | 0.138 | 0.151 | 0.166 | 0.183 | 0.2 | 0.217
